Laboratory results published in article PMC3246188, “Inhibition of endothelial- and neuronal-type, but not inducible-type, nitric oxide synthase by the oxidized cholesterol metabolite secosterol aldehyde: Implications for vascular and neurodegenerative diseases” (Journal of Clinical Biochemistry and Nutrition, 2011).
Like-named read-outs stand apart in the source and are kept apart here. Values belong to the compound of their own block, whether it stands above or below them.

Assays:
[1] = target: T1, iNOS (Mus musculus, UniProt P29477); assay: NOS activity assay, conversion of L-[14C(U)]-arginine to L-[14C(U)]-citrulline, recombinant iNOS; assay type: biochemical; conditions: tested 1–100 µM, highest concentration 100 µM
T1 construct: purchased Sigma Chem. (St. Louis, MO)
From the text: (§1) Secosterol-A and -B were synthesized according to Wentworth et al.([1]) L-Arginine, nicotinamide adenine dinucleotide phosphate reduced form (NADPH), flavin adenine dinucleotide (FAD), flavin mononucleotide (FMN), (6R)-5,6,7,8-tetrahydrobiopterin (BH4), recombinant eNOS (from bovine), iNOS (from mouse macrophages), and Dowex® AG50W-X8 cation-exchange resin (mesh size, 100–200) were all purchased from Sigma Chem. (St. Louis, MO). Ultima Gold XR scintillation liquid was from PerkinElmer (Shelton, CA). Recombinant nNOS (from rat) was obtained from Cayman Chem. All other chemicals were obtained from Wako Pure Chem. Ind., Osaka, Japan.
(§2) The NOS activities were determined by monitoring the conversion of L-[^14C(U)]-arginine (Moravek, Brea, CA) to L-[^14C(U)]-citrulline as previously described.([28]) Recombinant enzymes of three isoforms of NOS (specific activity: eNOS 0.03, nNOS 2.9, iNOS 0.62 units/mg protein) (10 µl) were added to a reaction mixture (final volume of 100 µl) consisting of 50 mM HEPES buffer (pH 7.4), 1 mM NADPH, 4 µM FAD, 4 µM FMN, 10 µM BH4, 1 mg/L (60 µM) calmodulin (CaM), 2.5 mM CaCl2, 50 µM L-arginine, 0.5 µCi/ml of L-[^14C(U)]-arginine (specific activity: 8.14–11.1 GBq/mmol) and varying concentrations of the test compound. After incubation for 30 min at 37°C, the reactions were terminated by the addition of 0.5 ml of 20 mM HEPES (pH 5.5) containing 2 mM EDTA and 2 mM EGTA. Samples were passed through a 1 ml column of Dowex AG50W-X8 (Na^+-form) to remove unconverted L-[^14C(U)]-arginine. L-[^14C(U)]-Citrulline was eluted twice with 1 ml of distilled water, and the eluted fractions mixed with 10 ml of cocktail (Ultima Gold XR) were quantified using a liquid scintillation counter. A reaction mixture containing L-[^14C(U)]-arginine without the enzyme was incubated as a control to determine background counts. The effects of oxidized cholesterol metabolites on the NOSs activities were examined in the presence and absence of the test compounds at various concentrations, which were prepared in 5% ethanol and a 10 µl aliquot was added into the reaction mixture.

[2] = target: T2, eNOS (Bos taurus, UniProt P29473); assay: NOS activity assay, conversion of L-[14C(U)]-arginine to L-[14C(U)]-citrulline, recombinant eNOS; assay type: biochemical, bovine; conditions: for Effect on eNOS activity: up to the highest concentration (100 µM)
T2 construct: purchased Sigma Chem. (St. Louis, MO)
T2 sequence (P29473 2-1205 limits assumed): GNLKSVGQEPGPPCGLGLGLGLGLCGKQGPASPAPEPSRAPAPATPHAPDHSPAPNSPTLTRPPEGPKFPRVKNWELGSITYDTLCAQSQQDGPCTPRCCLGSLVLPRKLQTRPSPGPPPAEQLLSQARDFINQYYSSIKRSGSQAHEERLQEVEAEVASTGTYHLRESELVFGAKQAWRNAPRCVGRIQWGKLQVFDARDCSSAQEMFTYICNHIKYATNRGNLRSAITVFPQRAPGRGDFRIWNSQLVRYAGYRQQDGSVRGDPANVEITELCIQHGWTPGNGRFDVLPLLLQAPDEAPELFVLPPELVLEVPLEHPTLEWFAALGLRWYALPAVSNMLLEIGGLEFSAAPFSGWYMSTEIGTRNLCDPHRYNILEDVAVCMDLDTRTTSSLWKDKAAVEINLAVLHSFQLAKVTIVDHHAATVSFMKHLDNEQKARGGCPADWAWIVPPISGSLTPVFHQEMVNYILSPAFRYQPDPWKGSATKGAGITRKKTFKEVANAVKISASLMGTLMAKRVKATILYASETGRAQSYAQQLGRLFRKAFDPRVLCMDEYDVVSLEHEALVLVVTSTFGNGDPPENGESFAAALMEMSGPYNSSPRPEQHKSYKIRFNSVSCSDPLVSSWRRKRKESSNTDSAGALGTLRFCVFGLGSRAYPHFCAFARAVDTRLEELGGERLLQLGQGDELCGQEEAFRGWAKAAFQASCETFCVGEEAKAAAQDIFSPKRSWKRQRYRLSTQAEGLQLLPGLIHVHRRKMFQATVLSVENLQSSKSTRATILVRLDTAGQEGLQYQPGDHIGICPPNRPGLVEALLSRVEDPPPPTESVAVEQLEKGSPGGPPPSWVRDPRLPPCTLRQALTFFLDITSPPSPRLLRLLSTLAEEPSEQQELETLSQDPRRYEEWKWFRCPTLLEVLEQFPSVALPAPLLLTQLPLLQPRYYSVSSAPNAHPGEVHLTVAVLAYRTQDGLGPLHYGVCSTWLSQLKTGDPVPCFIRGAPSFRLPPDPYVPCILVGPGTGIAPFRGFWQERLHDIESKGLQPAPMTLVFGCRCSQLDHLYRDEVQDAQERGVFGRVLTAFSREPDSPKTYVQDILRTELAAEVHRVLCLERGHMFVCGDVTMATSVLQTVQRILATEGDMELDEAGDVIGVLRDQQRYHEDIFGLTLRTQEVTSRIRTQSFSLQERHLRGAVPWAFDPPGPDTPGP
From the text: as §1, §2
(§3) Initial rates of citrulline formation were obtained by linear leastsquares data fitting of actual experimental data. Apparent Km and Vmax values at each inhibitor concentration were obtained from nonlinear regression fitting using the Michaelis-Menten equation. Ki and Kiʹ were obtained from the X-axis intercepts of plots of measured Km/Vmax and 1/Vmax vs inhibitor concentration, respectively.

[3] = target: T3, nNOS (Rattus norvegicus, UniProt P29476); assay: NOS activity assay, conversion of L-[14C(U)]-arginine to L-[14C(U)]-citrulline, recombinant nNOS; assay type: biochemical; conditions: for Effect on nNOS activity: up to the highest concentration (100 µM); for Pattern of inhibition of nNOS activity: Lineweaver-Burke plot
T3 construct: purchased Cayman Chem
T3 sequence (P29476 whole entry): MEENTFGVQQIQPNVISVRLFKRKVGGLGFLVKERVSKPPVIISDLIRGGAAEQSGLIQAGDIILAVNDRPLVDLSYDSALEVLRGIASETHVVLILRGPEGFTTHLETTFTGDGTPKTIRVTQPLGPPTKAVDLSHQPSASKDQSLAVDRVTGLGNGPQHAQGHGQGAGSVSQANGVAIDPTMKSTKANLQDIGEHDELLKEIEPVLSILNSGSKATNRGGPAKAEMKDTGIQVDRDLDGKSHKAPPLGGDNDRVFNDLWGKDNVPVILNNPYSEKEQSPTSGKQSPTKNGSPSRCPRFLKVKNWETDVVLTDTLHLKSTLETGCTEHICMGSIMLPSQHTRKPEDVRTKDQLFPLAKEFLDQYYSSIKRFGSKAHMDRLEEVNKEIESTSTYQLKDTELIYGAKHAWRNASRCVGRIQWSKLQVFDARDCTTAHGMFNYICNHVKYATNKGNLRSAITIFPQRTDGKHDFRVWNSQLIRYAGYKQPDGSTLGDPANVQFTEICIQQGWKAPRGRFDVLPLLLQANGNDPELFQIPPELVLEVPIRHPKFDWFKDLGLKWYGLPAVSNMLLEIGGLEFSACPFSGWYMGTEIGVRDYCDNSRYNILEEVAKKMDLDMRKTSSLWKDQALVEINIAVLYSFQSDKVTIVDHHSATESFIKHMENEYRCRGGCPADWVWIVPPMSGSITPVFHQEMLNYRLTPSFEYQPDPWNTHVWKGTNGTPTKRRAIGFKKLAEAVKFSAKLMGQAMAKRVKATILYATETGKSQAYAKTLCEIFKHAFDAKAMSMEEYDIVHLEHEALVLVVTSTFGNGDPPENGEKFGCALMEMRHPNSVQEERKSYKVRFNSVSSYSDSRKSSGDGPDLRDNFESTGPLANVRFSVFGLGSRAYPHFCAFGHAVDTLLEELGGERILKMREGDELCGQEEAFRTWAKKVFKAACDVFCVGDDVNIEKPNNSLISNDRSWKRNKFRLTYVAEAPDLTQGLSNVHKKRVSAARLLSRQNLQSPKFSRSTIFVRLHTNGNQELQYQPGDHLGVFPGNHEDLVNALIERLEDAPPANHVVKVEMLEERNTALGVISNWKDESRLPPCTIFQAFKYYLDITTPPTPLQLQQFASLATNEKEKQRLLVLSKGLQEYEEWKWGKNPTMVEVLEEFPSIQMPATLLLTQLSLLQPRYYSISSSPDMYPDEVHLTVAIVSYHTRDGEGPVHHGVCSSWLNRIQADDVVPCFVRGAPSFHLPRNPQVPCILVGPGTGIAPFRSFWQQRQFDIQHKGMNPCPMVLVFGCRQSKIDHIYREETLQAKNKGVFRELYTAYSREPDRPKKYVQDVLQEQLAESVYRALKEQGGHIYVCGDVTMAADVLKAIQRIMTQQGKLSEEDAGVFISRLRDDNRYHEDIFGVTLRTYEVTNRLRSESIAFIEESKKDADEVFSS
From the text: as §1, §2, §3

[4] = target: bovine serum albumin (Bos taurus, UniProt P02769); assay: Reaction with proteins to form the adduct (preliminary, unpublished data)
Chain of bovine serum albumin (P02769 25-607): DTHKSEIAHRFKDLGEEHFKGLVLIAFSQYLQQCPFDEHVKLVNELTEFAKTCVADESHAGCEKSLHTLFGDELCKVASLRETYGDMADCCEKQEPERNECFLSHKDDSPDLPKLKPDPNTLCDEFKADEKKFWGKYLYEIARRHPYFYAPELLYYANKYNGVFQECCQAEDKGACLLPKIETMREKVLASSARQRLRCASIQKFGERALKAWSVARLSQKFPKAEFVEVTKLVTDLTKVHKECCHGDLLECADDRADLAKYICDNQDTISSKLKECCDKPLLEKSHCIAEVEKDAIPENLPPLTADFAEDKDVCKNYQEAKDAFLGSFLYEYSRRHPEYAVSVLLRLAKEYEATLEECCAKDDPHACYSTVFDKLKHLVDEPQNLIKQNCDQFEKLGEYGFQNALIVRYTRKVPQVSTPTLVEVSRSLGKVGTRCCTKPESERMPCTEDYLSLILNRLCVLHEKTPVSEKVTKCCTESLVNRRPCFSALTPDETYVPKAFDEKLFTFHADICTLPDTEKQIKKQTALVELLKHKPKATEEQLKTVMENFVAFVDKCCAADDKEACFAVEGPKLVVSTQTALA

[5] = varying L-arginine, read-out: Ki(app) for the catalytic site

Structure (SMILES): CC(C)CCC[C@@H](C)[C@H]1CC[C@H]2[C@@H]3C[C@H]4O[C@]45C[C@@H](O)CC[C@]5(C)[C@H]3CC[C@]12C [5β,6β-epoxycholesterol]
Effect on iNOS activity [1]: do not affect
Effect on eNOS activity [2]: do not affect
Effect on nNOS activity [3]: do not affect

Structure (SMILES): C[C@H](CCCC(C)(C)O)[C@H]1CC[C@H]2[C@@H]3CC=C4C[C@@H](O)CC[C@]4(C)[C@H]3CC[C@]12C [25-hydroxycholesterol]
Effect on iNOS activity [1]: do not affect
Effect on eNOS activity [2]: do not affect
Effect on nNOS activity [3]: do not affect

Structure (SMILES): CC(C)CCC[C@@H](C)[C@H]1CC[C@H]2[C@@H]3C(=O)C=C4C[C@@H](O)CC[C@]4(C)[C@H]3CC[C@]12C [7-ketocholesterol, 3β-hydroxy-5-cholesten-7-one]
Effect on iNOS activity [1]: do not affect
Effect on eNOS activity [2]: do not affect
Effect on nNOS activity [3]: do not affect

Effect on iNOS activity [1]: do not affect
Effect on iNOS activity ([1]; listed as Cholesterol): no inhibitory effects
Effect on eNOS activity [2]: do not affect
Effect on eNOS activity ([2]; listed as Cholesterol): no inhibitory effects
Effect on nNOS activity [3]: do not affect
Effect on nNOS activity ([3]; listed as Cholesterol): no inhibitory effects
Structure (SMILES): CC(C)CCC[C@@H](C)[C@H]1CC[C@H]2[C@@H]3CC=C4C[C@@H](O)CC[C@]4(C)[C@H]3CC[C@]12C [cholesterol]

Structure (SMILES): CC(C)CCC[C@@H](C)[C@H]1CC[C@H]2[C@@H]3[C@@H](C=O)[C@]4(O)C[C@@H](O)CC[C@]4(C)[C@H]3CC[C@]12C [secosterol-B, 3β-hydroxy-5β-hydroxy-B-norcholestane-6β-carboxaldehyde]
Effect on iNOS activity [1]: do not affect
Effect on eNOS activity [2]: do not affect
Effect on nNOS activity [3]: do not affect

Effect on iNOS activity [1]: did not affect
Reactivity with proteins to form the adduct [4]: more easily than secosterol-B
eNOS activity, % of the activity without secosterol-A ([2]; 100 µM secosterol-A, 10 µM BH4): 41%
Restoration of inhibited eNOS activity by added BH4 ([2]; 100 µM secosterol-A, 50 and 100 µM BH4): did not restore
Restoration of inhibited eNOS activity by excess CaM ([2]; 100 µM secosterol-A, CaM 60–600 µM): did not restore
Vmax(app)ʹ ([2]; L-arginine as substrate, in the presence of 50 µM secosterol-A (1400 without inhibitor)): 480 µmol·L^−1·30 min^−1
IC50 ([2]; recombinant bovine eNOS, 50 µM L-arginine, 30 min at 37°C): 50 ± 5 µM
Ki [2, 5]: 50 µM
nNOS activity, % of the activity without secosterol-A ([3]; 40 µM secosterol-A, 10 µM BH4): 23%
nNOS activity compared to the activity without secosterol-A ([3]; 40 µM secosterol-A, 60 µM CaM): 22%
Restoration of inhibited nNOS activity by added BH4 ([3]; 40 µM secosterol-A, 50 and 100 µM BH4): did not restore
nNOS activity compared to the activity without secosterol-A ([3]; 40 µM secosterol-A, excess CaM 300 µM): 63%
nNOS activity compared to the activity without secosterol-A ([3]; 40 µM secosterol-A, excess CaM 600 µM): 86%
Vmax(app)ʹ ([3]; L-arginine as substrate, in the presence of 40 µM secosterol-A (10000 without inhibitor)): 909 µmol·L^−1·30 min^−1
IC50 ([3]; recombinant rat nNOS, 50 µM L-arginine, 30 min at 37°C): 22 ± 1 µM
Pattern of inhibition of nNOS activity ([3]; varying CaM): noncompetitive or a mixed-type
Ki ([3]; varying CaM, read-out: Kiʹ for the allosteric site (CaM-dependent nNOS activity)): 30 µM
Pattern of inhibition of nNOS activity ([3]; varying L-arginine): noncompetitive or a mixed-type
Ki [3, 5]: 10 µM
Ki ([3]; varying L-arginine, read-out: Ki(app)ʹ for the allosteric site): 1 µM
Structure (SMILES): CC(C)CCC[C@@H](C)[C@H]1CC[C@H]2[C@H](CC=O)[C@@H]([C@@]3(C)CC[C@H](O)CC3=O)CC[C@]12C [secosterol-A, 3β-hydroxy-5-oxo-5,6-secocholestan-6-al]
